Reference: ChEMBL document CHEMBL1136372, “Antibacterial activity of quinolone-macrocycle conjugates” (2003)
In brackets after ≈: the same amount, converted by molar mass.

Experiments:
[1] = tested on: Escherichia coli; experiment: Minimum inhibitory concentration against Escherichia coli ATCC 25922; assay type: functional
[2] = tested on: Staphylococcus aureus; experiment: Minimum inhibitory concentration (MIC) against Staphylococcus aureus ATCC 13709; assay type: functional

SMILES | MIC [1] [µM] | MIC [2] [µM]
CCn1cc(C(=O)Nc2ccc3c(c2)C(=O)NCCC(=O)N[C@@H](CCN)C(=O)N[C@@H](Cc2ccc(O)cc2)CO3)c(=O)c2ccc(C)nc21 | 50 (≈ 33.5 µg/mL) | > 100
CCN1CC(C(=O)Nc2ccc3c(c2)C(=O)NCCC(=O)N[C@@H](CCN)C(=O)N[C@H](Cc2ccc(O)cc2)CO3)C(=O)c2ccc(C)nc21 (some centres not stated) | 50 (≈ 33.6 µg/mL) | > 100
CCn1cc(C(=O)Nc2ccc3c(c2)C(=O)NCCC(=O)N[C@H](CCN)C(=O)N[C@H](Cc2ccccc2)CO3)c(=O)c2ccc(C)nc21 | 50 (≈ 32.7 µg/mL) | > 100
CCn1cc(C(=O)Nc2ccc3c(c2)C(=O)NCCC(=O)N[C@H](CCN)C(=O)N[C@@H](Cc2ccccc2)CO3)c(=O)c2ccc(C)nc21 | 50 (≈ 32.7 µg/mL) | > 100
CCn1cc(C(=O)Nc2ccc3c(c2)C(=O)NCCC(=O)N[C@H](CCN)C(=O)N[C@H](Cc2ccc(O)cc2)CO3)c(=O)c2ccc(C)nc21 | 50 (≈ 33.5 µg/mL) | > 100
NCC[C@@H]1NC(=O)CCNC(=O)c2cc(NC(=O)c3ccc4ccccc4c3)ccc2OC[C@@H](Cc2ccc(O)cc2)NC1=O | > 100 | > 100
NCC[C@@H]1NC(=O)CCNC(=O)c2cc(NC(=O)Cn3cnc4c(O)nc(N)nc43)ccc2OC[C@@H](Cc2ccc(O)cc2)NC1=O | > 100 | > 100
CCn1cc(C(=O)Nc2ccc3c(c2)C(=O)NCCC(=O)N[C@H](CCN)C(=O)N[C@@H](Cc2ccc(O)cc2)CO3)c(=O)c2ccc(C)nc21 | 50 (≈ 33.5 µg/mL) | > 100
NCC[C@@H]1NC(=O)CCNC(=O)c2cc(NC(=O)c3cnc4ccccc4c3)ccc2OC[C@@H](Cc2ccc(O)cc2)NC1=O | > 100 | > 100
CCn1cc(C(=O)O)c(=O)c2ccc(C)nc21 [NALIDIXIC ACID] | 3 (≈ 0.697 µg/mL) | 75 (≈ 17.4 µg/mL)
CCN1CC(CNc2ccc3c(c2)C(=O)NCCC(=O)N[C@@H](CCN)C(=O)N[C@H](Cc2ccc(O)cc2)CO3)C(=O)c2ccc(C)nc21 (some centres not stated) | > 100 | > 100
NCC[C@@H]1NC(=O)CCNC(=O)c2cc(NC(=O)Cn3cnc4c(N)ncnc43)ccc2OC[C@@H](Cc2ccc(O)cc2)NC1=O | > 100 | > 100
NCC[C@@H]1NC(=O)CCNC(=O)c2cc(NC(=O)c3cnccn3)ccc2OC[C@@H](Cc2ccc(O)cc2)NC1=O | > 100 | > 100
CCn1cc(C(=O)Nc2ccc3c(c2)C(=O)NCCC(=O)N[C@@H](CCN)C(=O)N[C@H](Cc2ccc(O)cc2)CO3)c(=O)c2ccc(C)nc21 | 50 (≈ 33.5 µg/mL) | > 100
CCn1cc(C(=O)Nc2ccc3c(c2)C(=O)NCCC(=O)N[C@@H](CCN)C(=O)N[C@@H](Cc2ccccc2)CO3)c(=O)c2ccc(C)nc21 | 50 (≈ 32.7 µg/mL) | > 100

The remaining compounds from weak to strong by MIC [1], led by results:

MIC [1] [µM] | MIC [2] [µM] | SMILES
50 (≈ 32.7 µg/mL) | > 100 | CCn1cc(C(=O)Nc2ccc3c(c2)C(=O)NCCC(=O)N[C@@H](CCN)C(=O)N[C@H](Cc2ccccc2)CO3)c(=O)c2ccc(C)nc21
6 (≈ 5.23 µg/mL) | 50 (≈ 43.6 µg/mL) | CC1COc2c(N3CCN(C)CC3)c(F)cc3c2N1CC(C(=O)N(C)CC(=O)Nc1ccc2c(c1)C(=O)NCCC(=O)N[C@@H](CCN)C(=O)N[C@H](Cc1ccc(O)cc1)CO2)C3=O (some centres not stated)
3 (≈ 2.7 µg/mL) | 25 (≈ 22.5 µg/mL) | CC1COc2c(N3CCN(C)CC3)c(F)cc3c2N1CC(C(=O)NCCCCC(=O)Nc1ccc2c(c1)C(=O)NCCC(=O)N[C@@H](CCN)C(=O)N[C@H](Cc1ccc(O)cc1)CO2)C3=O (some centres not stated)
3 (≈ 2.57 µg/mL) | 50 (≈ 42.9 µg/mL) | CC1COc2c(N3CCN(C)CC3)c(F)cc3c2N1CC(C(=O)NCC(=O)Nc1ccc2c(c1)C(=O)NCCC(=O)N[C@@H](CCN)C(=O)N[C@H](Cc1ccc(O)cc1)CO2)C3=O (some centres not stated)
3 (≈ 2.4 µg/mL) | 13 (≈ 10.4 µg/mL) | CC1COc2c(N3CCN(C)CC3)c(F)cc3c2N1CC(C(=O)Nc1ccc2c(c1)C(=O)NCCC(=O)N[C@@H](CCN)C(=O)N[C@H](Cc1ccc(O)cc1)CO2)C3=O (some centres not stated)
3 (≈ 2.62 µg/mL) | 13 (≈ 11.3 µg/mL) | CC1COc2c(N3CCN(C)CC3)c(F)cc3c2N1CC(C(=O)NCCC(=O)Nc1ccc2c(c1)C(=O)NCCC(=O)N[C@@H](CCN)C(=O)N[C@H](Cc1ccc(O)cc1)CO2)C3=O (some centres not stated)
3 (≈ 2.74 µg/mL) | 25 (≈ 22.9 µg/mL) | CC1COc2c(N3CCN(C)CC3)c(F)cc3c2N1CC(C(=O)NCCCCCC(=O)Nc1ccc2c(c1)C(=O)NCCC(=O)N[C@@H](CCN)C(=O)N[C@H](Cc1ccc(O)cc1)CO2)C3=O (some centres not stated)
3 (≈ 2.66 µg/mL) | 25 (≈ 22.1 µg/mL) | CC1COc2c(N3CCN(C)CC3)c(F)cc3c2N1CC(C(=O)NCCCC(=O)Nc1ccc2c(c1)C(=O)NCCC(=O)N[C@@H](CCN)C(=O)N[C@H](Cc1ccc(O)cc1)CO2)C3=O (some centres not stated)
0.78 (≈ 0.282 µg/mL) | 25 (≈ 9.03 µg/mL) | CC1COc2c(N3CCN(C)CC3)c(F)cc3c(=O)c(C(=O)O)cn1c23 (configuration not stated) [OFLOXACIN]
0.2 (≈ 0.157 µg/mL) | 1.6 (≈ 1.26 µg/mL) | CN1CCN(c2cc3c(cc2F)C(=O)C(C(=O)Nc2ccc4c(c2)C(=O)NCCC(=O)N[C@@H](CCN)C(=O)N[C@H](Cc2ccc(O)cc2)CO4)CN3C2CC2)CC1 (some centres not stated)
0.08 (≈ 0.0265 µg/mL) | 0.6 (≈ 0.199 µg/mL) | O=C(O)c1cn(C2CC2)c2cc(N3CCNCC3)c(F)cc2c1=O [CIPROFLOXACIN]
